This note sets out measurements from PMC9060465 (Proceedings of the National Academy of Sciences of the …, 2022).

Assay [1] addresses T1, ECD of human GLP-1R (amino acids 24 to 145) (Homo sapiens, UniProt P43220).
T1 construct: GLP-1R (amino acids 24 to 145); 6His; made in house; host or cells: CHO cells
In words: GLP-1R extracellular domain binding by surface plasmon resonance. The text has this: DNA encoding each protein was transfected into CHO cells for expression. After expression, the proteins were purified by affinity chromatography (HIS-Trap Ni, Cytiva) followed by size exclusion chromatography using a HiLoad 26/600 Superdex 75pg column (Cytiva) with PBS buffer. […] Surface plasmon resonance measurements were made using a Biacore T200 (Cytiva) and analyzed using T200 Evaluation Software Version 3.1. Receptor ectodomain proteins were covalently immobilized (∼250 resonance units) on Sensor Chip CM4 BR100534 using the Amine coupling Immobilization Wizard in the Biacore T200 Control Software Version 2.0.2. Running buffer was HBS-EP (10 mM Hepes, 150 mM NaCl, 3 mM EDTA, 0.05% P20 [pH 7.6]; Teknova). Concentration series for each sample were made by serial dilution in running buffer. The samples were injected for 150 sec at a 30-µL/min flow rate, followed by 300 sec of dissociation. The surface was regenerated between samples with 10 mM glycine (pH 1.7).
Fig. S10. Receptor extracellular domain (ECD) binding affinity of peptides. Purified GIPR (left column) and GLP-1R (right column) extracellular domains were immobilized to biosensor […]
mM). […]
and efficacy (% Top) of ligands to induce Gα s -GTPγS binding and cAMP accumulation in HEK293 cells expressing GIPR were determined. The equilibrium affinity (KD) of ligands for the immobilized ectodomain of the GIPR were quantified by surface plasmon resonance. […]
(§1) Functional potency (EC50) and efficacy (% Top) of ligands to induce Gα s-GTPγS binding and cAMP accumulation in HEK293 cells expressing GLP-1R were determined. The equilibrium affinity (KD) of ligands for the immobilized ectodomain of the GLP-1R were quantified by surface plasmon resonance. […]
recruitment to the GLP-1R were determined using the NanoBRET approach. The potency (EC50) and efficacy (% Top) for ligands to induce GLP-1R Internalization were determined using diffusion-enhanced resonance energy transfer. […]
relative efficacy for NanoBRET assays. SPR data were analyzed using T200 evaluation software (Cytiva). […] ND, not determined. […]

Assay [2] has as its target T2, GLP-1R (Homo sapiens, UniProt P43220). Nature of the assay: Ligand-induced GLP-1R internalization, SNAP-GLP-1R HEK293 cells. Type of assay: cell-based.
In assay [3] the target is T2, GLP-1R. In words: GLP-1R Gαs [35S]GTPγS binding, GLP-1R-expressing membranes. Type of assay: biochemical. Further details: expressed in transfected cells; host or cells: HEK293. Here is the method:
(§2) Fig. 4. […] (B) Ligand-induced GTPγS binding of Gαs was performed using the GIPR-expressing membranes. […] (C) Agonist-stimulated cAMP production was measured in human GIPR expressing HEK293 cells. […] (E) Ligand-induced GTPγS binding of Gαs was performed using the GLP-1R-expressing membranes. […] (F) Agonist-stimulated cAMP production was measured in human GLP-1R-expressing HEK293 cells. […] Data presented are representative of n ≥ 3 independent experiments. Summarized data are shown in SI Appendix, Table 2. log M; log Molar.
(§3) We note that the albumin-binding propensity of fatty acid-modified peptides can confound a pharmacological comparison of molecules, given the common use of albumin and serum as nonspecific blocking agents in biological assays. Therefore, to obviate this, entirely albumin-free assays supplemented with bovine casein or bacitracin were used to prevent nonspecific binding ([10]). […]
(§4) Middle Panel: The affinity (Ki) of ligands for the GLP-1R was […]
as §1
(§5) SPR data were analyzed using T200 evaluation software (Cytiva). All data are presented as geometric means with SEM and n values according to established practices. ND, not determined. NA, not applicable.
(GTPγS resists hydrolysis and so accumulates on activated G proteins.)

Assay [4] has as its target T2, GLP-1R. Nature of the assay: GLP-1R low density cAMP accumulation in HEK293 cells. Type of assay: cell-based. On the set-up: expressed in transfected cells; host or cells: HEK293. Here is the method: as §2, §3, §4, §1, §5
[5] abbreviates: efficacy (% Top), normalized to GLP-1(7-36), (SEM).

T2 sequence (P43220 24-463): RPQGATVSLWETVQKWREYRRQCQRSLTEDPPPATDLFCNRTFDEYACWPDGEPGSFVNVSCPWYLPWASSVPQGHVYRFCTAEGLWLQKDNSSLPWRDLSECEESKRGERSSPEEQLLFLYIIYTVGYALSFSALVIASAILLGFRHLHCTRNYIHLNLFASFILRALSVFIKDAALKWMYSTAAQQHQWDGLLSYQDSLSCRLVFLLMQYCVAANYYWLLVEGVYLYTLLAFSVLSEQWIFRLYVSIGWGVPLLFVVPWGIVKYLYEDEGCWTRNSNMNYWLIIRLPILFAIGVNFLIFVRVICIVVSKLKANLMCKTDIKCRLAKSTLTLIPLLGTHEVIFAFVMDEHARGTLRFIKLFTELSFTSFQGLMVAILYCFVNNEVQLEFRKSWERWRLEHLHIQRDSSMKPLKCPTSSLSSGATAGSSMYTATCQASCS
T1 sequence (P43220 24-145): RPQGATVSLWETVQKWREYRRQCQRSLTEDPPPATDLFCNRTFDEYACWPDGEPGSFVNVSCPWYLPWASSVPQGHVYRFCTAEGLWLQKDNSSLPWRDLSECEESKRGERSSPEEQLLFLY

One may read the Kd as the equilibrium constant for the complex coming apart. Low values mean a tighter complex, high ones a looser complex. For orientation: koff means a measure of how fast the partners let go of each other. A word on the EC50: it is the concentration needed to bring the measured effect to its halfway point. As to `CC[C@H](C)[C@H](NC(=O)[C@H](CC(C)C)NC(=O)[C@H](Cc1c[nH]c2ccccc12)NC(=O)[C@H](CCC(N)=O)NC(=O)[C@@H](NC(=O)[C@H](Cc1ccccc1)NC(=O)[C@H](C)NC(=O)[C@H](CCCCN)NC(=O)[C@H](CCC(N)=O)NC(=O)[C@H](C)NC(=O)[C@@H](NC(=O)[C@H](CCCCN)NC(=O)[C@H](CC(=O)O)NC(=O)[C@H](CC(C)C)NC(=O)C(C)(C)NC(=O)[C@@H](NC(=O)[C@H](CO)NC(=O)[C@H](Cc1ccc(O)cc1)NC(=O)[C@H](CC(=O)O)NC(=O)[C@H](CO)NC(=O)[C@@H](NC(=O)[C@H](Cc1ccccc1)NC(=O)[C@@H](NC(=O)CNC(=O)[C@H](CCC(=O)O)NC(=O)C(C)(C)NC(=O)[C@@H](N)Cc1ccc(O)cc1)[C@@H](C)O)[C@@H](C)O)[C@@H](C)CC)[C@@H](C)CC)C(C)C)C(=O)N[C@@H](C)C(=O)NCC(=O)NCC(=O)N1CCC[C@H]1C(=O)N[C@@H](CO)C(=O)N[C@@H](CO)C(=O)NCC(=O)N[C@@H](C)C(=O)N1CCC[C@H]1C(=O)N1CCC[C@H]1C(=O)N1CCC[C@H]1C(=O)N[C@@H](CO)C(N)=O` [Tzp∆C20], the Kd in assay [1] (GLP-1R SPR KD, equilibrium affinity, immobilized GLP-1R ectodomain, Biacore T200, HBS-EP pH 7.6, (SEM, n)) stood at 111 nM. Moreover, in assay [1] (read-out: GLP-1R ECD kinetic constant Koff), the koff was 0.0254 s⁻¹. For the same compound, the concentration giving a half-maximal response (EC50) in assay [2] (diffusion-enhanced resonance energy transfer, SNAP-GLP-1R HEK293 cells, 37 °C, geometric mean (SEM, n)) stood at 5.47 nM; in assay [3] (Gαs-GTPγS binding, GLP-1R-expressing membranes, albumin-free, geometric mean (SEM, n), read-out: GLP-1R GTPγS Recruitment EC50), 0.626 nM; in assay [4] (cAMP accumulation, HEK293 cells expressing GLP-1R, albumin-free, geometric mean (SEM, n)), 1.05 nM. Moreover, in assay [2] (efficacy (% Top), percent internalization compared to maximal GLP-1, (SEM)), the “GLP-1R Internalization Top” value was 90.6 (3.0) %. Besides, the “GLP-1R GTPγS Recruitment Top” value in assay [3] (setting [5]) is 74.8 (9.1) %. In addition, the “GLP-1R Low Density cAMP Top” value in assay [4] (setting [5]) is 105 (2) %.
